Columns and labels:
[1] = target: Platelet-activating factor receptor (Rattus norvegicus) (UniProt P46002); assay: Ability to block the effect of exogenously administered PAF upon intravenous administration in PAF-induced rat skin permeability assay; assay type: functional, organism-based
[2] = target: Platelet-activating factor receptor (Rattus norvegicus) (UniProt P46002); assay: Tested in vivo for to block the effect of exogenously administered PAF upon oral administration in PAF-induced rat skin permeability assay; assay type: functional, organism-based

Chain of Platelet-activating factor receptor (Rattus norvegicus) (P46002 whole entry): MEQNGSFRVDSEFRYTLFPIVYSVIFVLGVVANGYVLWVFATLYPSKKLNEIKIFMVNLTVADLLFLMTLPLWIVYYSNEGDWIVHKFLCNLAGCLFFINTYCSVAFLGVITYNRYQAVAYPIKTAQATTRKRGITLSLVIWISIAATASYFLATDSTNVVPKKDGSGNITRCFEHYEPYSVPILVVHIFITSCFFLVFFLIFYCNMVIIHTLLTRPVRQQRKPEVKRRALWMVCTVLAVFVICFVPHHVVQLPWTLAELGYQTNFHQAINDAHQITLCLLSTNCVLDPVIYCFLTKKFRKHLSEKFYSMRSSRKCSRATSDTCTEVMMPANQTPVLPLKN

| SMILES | ED50 [1] | ED50 [2] |
| --- | --- | --- |
| Cc1[nH]c2ccccc2c1C(=O)c1ccc(Cn2c(C)nc3cnccc32)cc1 | > 1 mg/kg |  |
| COC(=O)c1cc(-c2cc3ccccc3o2)cc2c1c(C(=O)c1ccc(Cn3c(C)nc4cnccc43)cc1)cn2C(=O)N(C)C | 0.011 mg/kg |  |
| Cc1nc2cnccc2n1CCCN(C)CC(=O)c1cn(C(=O)N(C)C)c2cc(-c3ccc(F)cc3)ccc12 | > 1 mg/kg |  |
| COC(=O)c1cccc2c1c(S(=O)(=O)c1ccc(Cn3c(C)nc4cnccc43)cc1)cn2C(=O)N(C)C | 0.48 mg/kg |  |
| CCOCCn1cc(C(=O)c2ccc(Cn3c(C)nc4cnccc43)cc2)c2c(C(=O)OC)cccc21 | 0.012 mg/kg | 1.1 mg/kg |
| COC(=O)c1cccc2c1c(C(=O)c1ccc(Cn3c(C)nc4cnccc43)c(F)c1)cn2C(=O)N(C)C | 0.006 mg/kg | 0.36 mg/kg |
| Cc1ccc(C)c2c(C(=O)c3ccc(Cn4c(C)nc5cnccc54)cc3)c[nH]c12 | 0.054 mg/kg |  |
| Cc1nc2cnccc2n1Cc1ccc(C(=O)c2cn(C(=O)N(C)C)c3ccccc23)cc1 | 0.18 mg/kg |  |
| COC(=O)c1cccc2c1c(C(=O)c1ccc(Cn3c(C)nc4c[n+]([O-])ccc43)cc1)cn2C(=O)N(C)C | 0.14 mg/kg |  |
| COC(=O)c1cccc2c1c(C(=O)CCCCCCn1c(C)nc3cnccc31)cn2C(=O)N(C)C | > 1 mg/kg |  |
| C#Cc1cccc2c1c(C(=O)c1ccc(Cn3c(C)nc4cnccc43)cc1)cn2C(=O)N(C)C | 0.003 mg/kg | 0.14 mg/kg |
| Cc1nc2cnccc2n1Cc1ccc(C(=O)c2c[nH]c3cc(-c4ccc(F)cc4)ccc23)cc1 | 1.3 mg/kg |  |
| COC(=O)c1cccc2c1c(C(=O)C1CCC(Cn3c(C)nc4cnccc43)CC1)cn2C(=O)N(C)C (centres undefined) | 0.02 mg/kg | > 1 mg/kg |
| COC(=O)c1cccc2c1c(C(=O)Cc1ccc(-n3c(C)nc4cnccc43)cc1)cn2C(=O)N(C)C | 0.005 mg/kg | 0.17 mg/kg |
| COC(=O)c1cccc2[nH]cc(C(=O)c3ccc(Cn4c(C)nc5cnccc54)cc3)c12 | 0.15 mg/kg |  |
| COC(=O)c1cccc2c1c(C(=O)c1ccc(Cn3c(C)nc4cnccc43)s1)cn2C(=O)N(C)C | 0.12 mg/kg |  |
| COC(=O)c1cccc2c1c(C(=O)c1ccc(Cn3c(C)nc4ccccc43)cc1)cn2C(=O)N(C)C | > 1 mg/kg |  |
| COC(=O)c1ccc2c(c1)c(C(=O)c1ccc(Cn3c(C)nc4cnccc43)cc1)cn2C(=O)N(C)C | > 1 mg/kg |  |
| COC(=O)c1cccc2c1c(C(=O)c1ccc(Cn3c(C)nc4cnccc43)cc1)cn2C(=O)N1CCCC1 | 0.005 mg/kg | 1.2 mg/kg |
| COC(=O)c1cccc2c1c(C(=O)c1ccc(Cn3c(C)nc4ccncc43)cc1)cn2C(=O)N(C)C | 0.24 mg/kg |  |

| SMILES | ED50 [1] | ED50 [2] |
| --- | --- | --- |
| COC(=O)c1cccc2c1c(C(=O)CCCCCn1c(C)nc3cnccc31)cn2C(=O)N(C)C | 0.013 mg/kg | 1.1 mg/kg |
| COC(=O)c1cccc2c1c(C(=O)c1ccc(Cn3c(C)nc4cnccc43)cc1)cn2S(=O)(=O)N(C)C | 0.074 mg/kg |  |
| Cc1nc2cnccc2n1Cc1ccc(C(=O)c2cn(C(=O)N(C)C)c3cccc(C(=O)N(C)C)c23)cc1 | 0.028 mg/kg | 1.3 mg/kg |
| COC(=O)c1cccc2c1c(C(=O)c1ccc(Cn3c(C)nc4cnccc43)cc1)cn2CC(=O)N(C)C | 0.012 mg/kg | 2.4 mg/kg |
| C#Cc1cccc2c1c(C(O)c1ccc(Cn3c(C)nc4cnccc43)c(F)c1)cn2C(=O)N(C)C (centres undefined) | 0.007 mg/kg |  |
| Cc1nc2ncccc2n1Cc1ccc(C(=O)c2cn(C(=O)N(C)C)c3cccc(Cl)c23)cc1 | 0.34 mg/kg |  |
| COC(=O)c1cccc2c1c(C(=O)c1ccc(Cn3c(C)nc4cnccc43)cc1)cn2C(C)C | 0.1 mg/kg |  |
| Cc1cccc2c1c(C(=O)CN1CCC(n3c(C)nc4cnccc43)CC1)cn2C(=O)N(C)C | 0.005 mg/kg | 0.14 mg/kg |
| COC(=O)c1cc(Br)cc2c1c(C(=O)c1ccc(Cn3c(C)nc4cnccc43)cc1)cn2C(=O)N(C)C | 0.009 mg/kg | 0.83 mg/kg |
| COC(=O)c1cccc2c1c(C(=O)c1ccc(Cn3c(C)nc4c(C)nc(C)cc43)cc1)cn2C(=O)N(C)C | > 1 mg/kg |  |
| COC(=O)c1cccc2c1c(C(=O)c1ccc(Cn3c(C)nc4ncccc43)cc1)cn2C(=O)N(C)C | 0.026 mg/kg |  |
| CCc1cccc2c1c(C(=O)c1ccc(Cn3c(C)nc4cnccc43)cc1)cn2C(=O)N(C)C | 0.003 mg/kg | 0.078 mg/kg |
| Cc1nc2cnccc2n1Cc1ccc(C(=O)c2cn(C(=O)N(C)C)c3cccc(-c4ccc(F)cc4)c23)cc1 | 0.004 mg/kg | 0.45 mg/kg |
| C#Cc1cccc2[nH]cc(C(=O)c3ccc(Cn4c(C)nc5cnccc54)c(F)c3)c12 | 0.018 mg/kg |  |
| Cc1nc2cnccc2n1Cc1ccc(S(=O)(=O)c2cn(C(=O)N(C)C)c3ccccc23)cc1 | > 1 mg/kg |  |
| Cc1nc2cnccc2n1CCCCCC(=O)c1cn(C(=O)N(C)C)c2cccc(-c3ccc(F)cc3)c12 | 0.005 mg/kg | > 1 mg/kg |
| COC(=O)c1[nH]c2cccc(OC)c2c1C(=O)c1ccc(Cn2c(C)nc3cnccc32)cc1 | 0.65 mg/kg |  |
| COC(=O)c1cccc2c1c(C(=O)c1ccc(Cn3c(C)nc4cnccc43)cc1)cn2S(=O)(=O)C(C)C | 0.12 mg/kg |  |
| Cc1nc2cnccc2n1CC1CCN(C(=O)c2cn(C(=O)N(C)C)c3cc(-c4ccc(F)cc4)ccc23)CC1 | 0.022 mg/kg | 2.2 mg/kg |

Source: ChEMBL document CHEMBL1131207, “Discovery and evaluation of a series of 3-acylindole imidazopyridine platelet-activating factor antagonists” (J Med Chem, 1998)
